Data from patent publication US20070197660A1, “Compounds for modulating cell proliferation” (The Hospital for Sick Children, priority 2003, published 2007).
Read-outs that look alike come from different tables or passages of the source.

Key:
Format in all cases: cell-based
Z119 cells = experiment: Killing of Philadelphia positive Z119 acute lymphoblastic leukemia cells in culture (colony assay); settings: 168 h, Z119 Ph+ ALL cells, colonies >20 cells counted at 7 days or earlier, methylcellulose, read-out: ALL (Z 119) IC 50
Procedure: Z119 cells are plated in 1 mL volumes at a density of 1×10^4 cells/mL, in the absence of exogenous growth factors, into 35 mm petri dishes (Nunc, Gibco) containing IMDM (OCI, Toronto) plus 20% FCS (Cansera Rexdale, ON) in 0.9% (vol/vol) methylcellulose (Fluka, Switzerland) with various concentrations of test compounds. Cultures are set at 37° C., 5% CO2 in a humidified atmosphere. Colonies consisting of more than 20 cells are counted at 7 days or earlier using an inverted microscope. Results see Tables 4 and 8.

NBM (BFU-E) = experiment: Effect upon normal bone marrow differentiation in culture (CFU-GEMM assay, BFU-E); settings: BFU-E colonies
From the text: A CFU-GEMM assay may be performed according to Fauser and Messner (1978, Blood, 52(6) 143-8) and Messner and Fausser (1980, Blut, 41(5) 327-33).

OCI-AML-3 cells = experiment: Killing of AML3 acute myeloid leukemia cells in culture (colony assay); settings: Homo sapiens, colonies >20 cells scored at 5-6 days, methylcellulose
Procedure: OCI-AML-3 cells are plated in 35 mm petri dishes (Nunc, Gibco) in 1 mL volumes at a density of 3.3×10^3 cells/mL, in the absence of exogenous growth factors, containing alpha MEM plus 20% FCS (Cansera, Rexdale Ont.), and 0.9% (vol/vol) methylcellulose (Fluka, Switzerland) and various concentrations of test compounds. Cell cultures are incubated in a humidified atmosphere at 37° C. with 5% CO2. Colonies containing more than 20 cells are scored, using an inverted microscope, at 5-6 days. Results see Tables 4 and 8.

[1] = Table 4, read-out: NBM (BFU-E) IC 50
[2] = Table 4, read-out: AML (OCI AML-3) IC 50
[3] = Table 8, read-out: NBM (BFU-E) IC 50
[4] = Table 8, read-out: AML (OCI AML-3) IC 50

COCCOCCOCCOC(=O)/C(C#N)=C/C=C/c1ccc(O)c(O)c1 [CRIV-42, 2-Cyano-5-(3,4-dihydroxyphenyl)-penta-2E,4E-dienoic acid 2-[2-(2-methoxyethoxy)ethoxy]ethyl ester]
IC50 (Z119 cells; Table 4): ≥ 0.5 µM
IC50 (NBM (BFU-E); [1]): ≥ 10 µM
IC50 (OCI-AML-3 cells; [2]): 0.09 µM

COc1cc(/C=C/C=C(\C#N)C(=O)OCc2ccccc2)cc(OC)c1O [CRIX-38, 2-Cyano-5-(4-hydroxy-3,5-dimethoxyphenyl)-penta-2E,4E-dienoic acid benzyl ester]
IC50 (Z119 cells; Table 4): > 1 µM
IC50 (NBM (BFU-E); [1]): ≤ 10 µM
IC50 (OCI-AML-3 cells; [2]): > 0.5 µM

N#C/C(=C\C=C\c1ccc(O)c(O)c1)C(=O)OCc1ccccc1 [CRIX-39, 2-Cyano-5-(3,4-dihydroxyphenyl)-penta-2E,4E-dienoic acid benzyl ester]
IC50 (Z119 cells; Table 4): ≥ 0.6 µM
IC50 (NBM (BFU-E); [1]): 8 µM
IC50 (OCI-AML-3 cells; [2]): 0.09 µM

N#C/C(=C\C=C\c1ccc(O)c(O)c1)S(=O)(=O)c1ccccc1 [CRVIII-33, 2-Benzenesulfonyl-5-(3,4-dihydroxyphenyl)-penta-2E,4E-dienenitrile]
IC50 (Z119 cells; Table 8): ≥ 0.55 µM
IC50 (NBM (BFU-E); [3]): 12 µM
IC50 (OCI-AML-3 cells; [4]): > 0.5 µM

COc1cc(/C=C/C=C(\C#N)S(=O)(=O)c2ccccc2)cc(OC)c1O [CRVIII-34, 2-Benzenesulfonyl-5-(4-hydroxy-3,5-dimethoxyphenyl)-penta-2E,4E-dienenitrile]
IC50 (Z119 cells; Table 8): > 1 µM
IC50 (NBM (BFU-E); [3]): ≤ 10 µM
IC50 (OCI-AML-3 cells; [4]): > 0.5 µM

N#C/C(=C\C=C\c1ccc([N+](=O)[O-])cc1)S(=O)(=O)c1ccccc1 [CRVIII-35, 2-Benzenesulfonyl-5-(4-nitrophenyl)-penta-2E,4E-dienenitrile]
IC50 (Z119 cells; Table 8): > 1 µM
IC50 (NBM (BFU-E); [3]): > 5 µM
IC50 (OCI-AML-3 cells; [4]): > 0.5 µM

N#C/C(=C\C=C\c1ccc(O)c(O)c1)S(=O)(=O)c1ccccn1 [CRVIII-50, 5-(3,4-Dihydroxyphenyl)-2-(pyridine-2-sulfonyl)-penta-2E,4E-dienenitrile]
IC50 (Z119 cells; Table 8): ≥ 0.17 µM
IC50 (NBM (BFU-E); [3]): ≤ 5 µM
IC50 (OCI-AML-3 cells; [4]): ≥ 0.25 µM

N#C/C(=C\C=C\c1ccc(O)c(O)c1)S(=O)(=O)c1ccc(Cl)cc1 [CRVIII-51, 2-(4-Chlorobenzenesulfonyl)-5-(3,4-dihydroxyphenyl)-penta-2E,4E-dienenitrile]
IC50 (Z119 cells; Table 8): 0.23 µM
IC50 (NBM (BFU-E); [3]): ≥ 5 µM
IC50 (OCI-AML-3 cells; [4]): 0.25 to 0.5 µM

Cc1ccc(S(=O)(=O)/C(C#N)=C/C=C/c2ccc(O)c(O)c2)cc1 [CRVIII-52, 5-(3,4-Dihydroxyphenyl)-2-(toluene-4-sulfonyl)-penta-2E,4E-dienenitrile]
IC50 (Z119 cells; Table 8): 0.25 to 0.5 µM
IC50 (NBM (BFU-E); [3]): ≤ 10 µM
IC50 (OCI-AML-3 cells; [4]): 0.25 to 0.5 µM

CS(=O)(=O)/C(C#N)=C/C=C/c1ccc(O)c(O)c1 [CRVIII-53, 5-(3,4-Dihydroxyphenyl)-2-methanesulfonyl-penta-2E,4E-dienenitrile]
IC50 (Z119 cells; Table 8): 0.45 µM
IC50 (NBM (BFU-E); [3]): ≤ 10 µM
IC50 (OCI-AML-3 cells; [4]): 0.25 to 0.5 µM

COCCOCCOCCOC(=O)/C(C#N)=C/C=C/c1cc(OC)c(O)c(OC)c1 [GRIV-46, 2-Cyano-5-(4-hydroxy-3,5-dimethoxyphenyl)-penta-2E,4E-dienoic acid 2-[2-(2-methoxyethoxy)ethoxy]ethyl ester]
IC50 (Z119 cells; Table 4): > 0.5 µM
IC50 (NBM (BFU-E); [1]): ≥ 10 µM
IC50 (OCI-AML-3 cells; [2]): ≥ 0.5 µM
